Patent publication US10568923B2, “Plant parts and extracts having anticoccidial activity” (priority 2012, dated 2020)
Entries after “also recorded” stand apart in the source; their conditions may differ.

Tests used:
[1] = tested on: E. tenella (Houghton strain); test: Example 1 screening trial: Q. infectoria in controlling caecal coccidiosis in broiler chickens; type: in vivo, Eimeria tenella; settings: day 7 post infection; average of three replicates; Q. infectoria 100 g/ton feed, Coxistac 1000 g/ton
Protocol: The screening trial was conducted at a poultry farm facility located in Gummidipundi, India. Straight run commercial hybrid broiler chickens, Gallus domesticus (Var. Vencobb 400) were used for the study. Day old male chicks were procured, weighed individually, wing banded, and randomly segregated into groups. The experimental design is detailed in Table 1.
The treated birds were fed with plant extract incorporated in the feed from day 1 (Table 2). The crude powders of Q. infectoria gall nut were procured from Pooja herbs, Mumbai, India. […]
The excreta of the birds were monitored daily from the day 1 post infection to day 10 for their consistency, presence of blood, mucus, undigested feed, and orange color. […]
The mortality of the birds was recorded on a daily basis and post mortem was carried out to confirm the cause of death.
On day 5 and 7 post infection, 2 birds from each of the groups were sacrificed by cervical dislocation and the intestine was cut open. The caeca of the birds were scored for coccidiosis lesions. […]
Triplicate samples of the excreta of the birds were collected randomly from the tray kept below the cages and the oocyst per gram was evaluated.

[2] = tested on: E. maxima (isolate ID NKL/11/Ac1); test: Example 14: in vivo anticoccidial trial in Cobb 400 broilers challenged with E. maxima; parameters: species or system Eimeria maxima; settings: day 6 post challenge
Description: The trial was designed with 11 treatment groups with 2 replicates per groups and 12 male birds per replicate. The groups included (1) uninfected control, (2) infected control, (3) positive control groups supplemented with Salinomycin (Coxistac) at the recommended dosage, (4) treatment group treated with 20 and 50 g/ton of pure THB, (5) encapsulated THB at 46.3, 92.6 and 185.2 g/ton of feed, and (6) microemulsion of THB at 138.9, 277.8 and 416.7 g/ton of feed. […] The parameters evaluated were lesion scoring on day 6 post challenge and oocysts shedding on day 7 post-challenge.
The trial was conducted at the R & D poultry farm facility of Kemin Animal Nutrition and Health (India), Gummidipundi. Straight run commercial hybrid broiler chickens, Gallus domesticus (Var. Vencobb 400) were used for the study. Day old male chicks were procured from Shanthi hatcheries, Coimbatore, India. Birds were weighed and examined for general health at receipt. The birds were individually identified by wing bands. The chicks were housed in mild steel cages which were cleaned, disinfected using Virkon S (Du Pont, India) and painted earlier. The birds were provided with ad libitum feed and water. No water sanitizers or antimicrobial compounds were used in the water or in the feed. The experimental design is detailed in Table 13. As this was a preliminary study to evaluate the effect of encapsulated and microemulsion of THB in controlling coccidiosis only 2 replicates were maintained.
The birds were fed with either feed containing no anticoccidial agent, THB, encapsulated THB, microemulsion of THB or Salinomycin (Coxistac, Pfizer, India) incorporated in the feed from day 1. THB was obtained from J P N Pharma, Mumbai, India
The oocysts of E. maxima (isolate ID NKL/11/Ac1) that were maintained at the Department of Veterinary Parasitology, Madras Veterinary College, Chennai were used for the induction of coccidiosis in the trial birds. The origin of the isolate was a broiler bird with clinical coccidiosis, and they were propagated in vivo to yield oocyst quantities sufficient for the study. […]

[3] = Example 15: compatibility with Tiamulin in commercial broilers (Ross 308), 42 days; type: in vivo, Gallus domesticus (Var. Ross 308); settings: used in combination in feed of broilers
Protocol: Experimental facility and study design. An in vivo trial was conducted at Ramadootha poultry farm, Hyderabad, India. Straight run commercial hybrid broiler chickens, Gallus domesticus (Var. Ross 308) were used for the study. Day old male chicks were procured from Suguna Broilers, India. The birds were weighed individually, wing banded, and randomly segregated into groups. The experimental design is detailed in Table 18.
Details of treatment groups. The treated birds were fed with supplements incorporated in the feed from day 1 (Table 22).
Parameters analyzed. The parameters that were chosen for analyses were body weight, feed conversion ratio (FCR) on a weekly basis, mortality and leg weakness on daily basis.
Mean body weight. Birds from each of the groups were removed and weighed individually every week to calculate the weight gain. The cumulative average weight gain of the 8 replicates of each of the group was taken as the mean weight/week.
Feed Conversion ratio (FCR). The total feed consumption was monitored regularly and FCR was arrived at by dividing the feed consumed per bird by the final weight per bird.
Mortality. Mortality was recorded on daily basis and the total mortality was calculated and expressed as %. […]
Leg weakness. All birds were examined every day for the major clinical signs, leg weakness which was scored on a 0 to 4 scale. […]

[4] = tested on: mixed culture of oocysts of the species E. tenella, E. acervulina and E. maxima; test: In vivo challenge trial in broiler birds with mixed infection of coccidiosis (Examples 3, 10, 13); settings: Example 10, 11, 22 and 55 ppm
[5] = tested on: sporozoites of Eimeria tenella; test: In vitro anti-sporozoite activity by MTT reduction assay; type: cell-based; settings: peaks separated by semi-preparative HPLC; compared to crude powder in equivalent concentrations
Protocol: Further, an in vitro method based on 3-(4,5-Dimethyl-2-thiazolyl)-2,5-diphenyl-2H-tetrazolium bromide (MTT) reduction assay was developed to evaluate the anti-sporozoite activity of plant extracts as a measure of the viability of the sporozoites. The optimized method included the preparation, sterilization and purification of sporozoites, followed by incubation of sporozoite suspension (minimum of 10^5 cells/ml) with required concentration of plant extract. The plant samples were prepared by mixing crude powder into a known volume of distilled water to achieve the specific ppm, vortexed for 2 min and filtered through a 0.2μ syringe filter. Following 24 h of incubation with the plant extracts, the sporozoites were thoroughly washed and then MTT assay was performed. MTT-PMS solution (0.2 millimolar each) is incubated with the sporozoite suspension (at 1:10 ratio) for 2 h at 41° C. […] The purple dye formazan is dissolved in 200 ul DMSO and the absorbance is measured at 530 nm against a reference wavelength of 630 nm.
Q. infectoria gall nut crude powder was fractionated using different solvent by column chromatography. The sample from each of the fractions was evaluated for their anti-sporozoite activity.
These four compounds were separated by semi-preparative HPLC and anti-sporozoite activity was evaluated in comparison to the crude powder in equivalent concentrations.

Row | Structure (SMILES) | Average Oocysts Per Gram Excreta [1] | Lesion score (mid-gut) ([2]; Coxistac at 500 g/ton of feed, vs infected control) | Compatibility with Tiamulin [3] | Dose response (lesion score, OPG) [4] | Lesion score for E. tenella, E. maxima and E. acervulina ([4]; day 5 post infection, vs infected control and Salinomycin) | Anti-sporozoite activity of the four major HPLC peaks (MTT) [5] | Lesion score (mid-gut) ([2]; pure THB at 25 and 50 ppm) | Lesion score (mid-gut) ([2]; pure THB at 25 and 50 ppm, listed as THB)
1 | CC[C@@H](C(=O)[C@@H](C)[C@@H](O)[C@H](C)[C@@H]1O[C@@H]([C@@H](CC)C(=O)O)CC[C@@H]1C)[C@H]1O[C@]2(C=C[C@@H](O)[C@]3(CC[C@@](C)([C@H]4CC[C@](O)(CC)[C@H](C)O4)O3)O2)[C@H](C)C[C@@H]1C [Salinomycin, reference compound] | did not show any indication of reduction of oocysts | no significant reduction; also recorded: showed a reduction in lesion scores | indicates interaction |  |  |  |  | 
2 | O=C(O)c1cc(O)c(O)c(O)c1 (single isomer, unassigned) [gallic acid, 3,4,5-trihydroxybenzoic acid] |  |  |  | Dose dependent response was observed with no significant difference between gallic acid at 22 and 55 ppm | significant reduction in the score for all the three tested species | best anti-sporozoite activity | comparable efficacy | significant improvement in lesions scores when compared to the positive control
